Test results published in patent US9938335B2, “Glucagon and GLP-1 co-agonist compounds” (Eli Lilly and Company, priority 2015, dated 2018).
≈ marks a conversion by molar mass, not a printed value. Like-named read-outs stand apart in the source and are kept apart here. Marks after values point to notes of the source that are not given here. Starred links: 1 amine or outer side, 2 acyl side, 3 side chain; linkers in the order of their positions; H or OH if unused. Non-standard residues stand in square brackets, D forms with d. Residues, ends and D or L forms follow the SMILES beside them. Groups on a side chain read outwards from the residue. *: point of attachment. C20 diacid = O=C(O)CCCCCCCCCCCCCCCCCCC(=O)*; γGlu = O=C(O)[C@H](CCC(=O)[*:2])N[*:1]; AEEA = NCCOCCOCC(=O)O; Aib = CC(C)(N)C(=O)O

Legend:
DIO mice (C57BL/6) [1] = test: Chronic treatment in DIO mice (body weight, fat, food intake); assay type: in vivo, mouse
Experimental: The effects on food intake and body weight/fat are evaluated in DIO mice. Five to six months old DIO mice (C57BL/6) from Taconic Biosciences are used in this study. Animals are individually housed in a temperature-controlled (24° C.) facility with a 12 hour light/dark cycle (lights on 6:00), and free access to food and water. The mice are acclimated to the facility for two weeks. The day before the study start, fat mass is measured by nuclear magnetic resonance (NMR) using an Echo Medical System (Houston, Tex.) instrument. The mice are randomized to treatment groups (N=7/group) based on body weight and fat mass so each group had similar starting mean body weight and fat mass. […] SC injections are made on Day 1, 4, 7, 10, and 13. Body weight and food intake are measured right before each injection throughout the study. Percent changes in body weight are calculated as follows: […]
At the completion of the study, total fat mass is measured again by NMR. Statistics are analyzed using ANOVA with Dunnett's comparison by JMP 6. Significance is denoted at p≤0.05 vs. vehicle.

hGLP-1-R [2] = target: T1, hGLP-1-R (Homo sapiens, UniProt P43220); test: hGLP-1R Binding Assay (SPA radioligand competition, 293HEK membranes); design: expressed in transfected cells; host or cells: 293HEK, stably transfected with plasmid phD, Hygromycin-selected; crude plasma membranes; conditions: read-out: Ki, nM ± SEM at the hGLP-1-R
[3] = Viscosity (Rheosense mVroc Viscometer); assay type: physicochemical; conditions: approximately 10 mg/mL peptide in 10 mM Tris + 3 mg/mL m-cresol at pH 8.0; 25° C.; shear rate 1934 s^−1
Experimental: Viscosity of compounds of the present invention is measured in a Rheosense mVroc Viscometer with the following settings:
(a) Syringe size: 500 μL syringe
(b) Flow Rate: 100 μL/min flow rate
(c) Average Temperature: 25° C.
(d) Shear Rate: 1934 s^−1
Dry powder (compound) is weighed out, dissolved in water as a cloudy precipitate, and titrated to approximately pH 8.0 with 1N NaOH. The solution is sonicated and swirled by hand until peptide is in solution. Samples are sterile filtered (0.22 μm PVDF filters). Samples are then analyzed by UV-Vis to assess stock solution concentrations. Solutions are diluted to final concentration using 3× m-cresol in 10 mM Tris pH 8.0 buffer to final concentrations of approximately 10 mg/mL peptide by weight in 10 mM Tris+3 mg/mL m-cresol at pH 8.0. Samples were filtered through 0.22 μm filters immediately prior to viscosity analysis. 25 μL of sample are removed to verify concentration by RP-HPLC before and after analysis.
Water and buffer control samples are measured before and after each sample is analyzed. The instrument is washed with buffer (3×) in between analysis of each sample. The samples are loaded into individual syringes and analyzed. The first measurement is not included in the final calculation to allow for equilibration with the system. Samples are then analyzed in triplicate (n=3).
The viscosity of Compounds 1-4 was measured essentially as described in this assay.

hGLP-1-R [4] = target: T1, hGLP-1-R; test: Functional hGLP-1-R assay (cAMP HTRF, HEK-293 clonal cell line); assay type: cell-based; design: expressed in transfected cells; host or cells: HEK-293 clonal cell line over-expressing the receptor
Experimental: (§1) After a 60 minute incubation at room temperature, the resulting increase in intracellular cAMP (adenosine 3′,5′-cyclic monophosphate) is quantitatively determined using the CisBio cAMP Dynamic 2 HTRF Assay Kit (62AM4PEJ). cAMP levels within the cell are detected by adding the cAMP-d2 conjugate in cell lysis buffer (20 μl) followed by the antibody anti-cAMP-Eu^3+-Cryptate, also in cell lysis buffer (20 μl).
(§2) A relative EC50 value and percent top (Emax) are derived by non-linear regression analysis using the percent maximal response vs. the concentration of peptide added, fitted to a four-parameter logistic equation (Genedata Screener®).
(§3) Means for EC50 are expressed as Geometric means±standard error of the mean (SEM) with the number of replicates (n) indicated in parenthesis. Means for Emax are expressed as the arithmetic mean±standard error. ND signifies that agonist activity was not detected.

hGcg-R = hGcg-R (Homo sapiens, UniProt P47871); test: hGcg-R Binding Assay (SPA radioligand competition, 293HEK membranes); conditions: read-out: Ki, nM ± SEM at the hGcg-R
DIO mice (C57BL/6) [5] = test: Glycemic control in DIO mice; assay type: in vivo, mouse; conditions: for Blood glucose (mg/dL) post-injection, Mean: male DIO mice, 25 nmol/kg sc once
Experimental: Five to six months old male DIO mice (C57BL/6) from Taconic Biosciences are used in this study. Animals are individually housed in a temperature-controlled (24° C.) facility with a 12 hour light/dark cycle (lights on 6:00), and free access to food and water. After two weeks acclimation to the facility, the mice are randomized to treatment groups (n=7/group) based on their body weight and blood glucose. Mice are injected subcutaneously once with vehicle or compounds (25 nmol/kg). Blood glucose is monitored 2 and 8 hours post-injection and then once a day at 08:00 for 4 days. OGTTs are performed at 44 and 78 hours post the peptide injection. Statistics are analyzed using ANOVA with Dunnett's comparison by JMP 6. Significance is denoted at p≤0.05 vs vehicle.

[6] = Solubility (RP-HPLC and HPLC-SEC, 1 week at 4° C.); assay type: physicochemical
Experimental: Solubility of compounds of the present invention is measured in an Agilent 1100 HPLC, an Agilent 1200 HPLC and a Nanodrop 2000. The following HPLC columns are used:
(a) RP-HPLC: Waters Symmetry Shield C18, 3.6 um, 4.6×100 mm
(b) HPLC-SEC: Tosoh Biosciences, TSK2000SWXL […]
All peptide concentrations are made at 10 mg/mL in the following:
(a) 10 mM Tris pH 8.0+3 mg/mL m-cresol
(b) 10 mM Tris pH 8.0+3 mg/mL m-cresol+150 mM NaCl
(c) 10 mM Tris pH 8.0+3 mg/mL m-cresol+0.02% Tween-20
5 mL of 10 mg/mL peptide dissolved in 10 mM Tris at pH 8.0 is concentrated to approximately 20 mg/mL using Amicon-ultra 3 kDa MWCO devices. The solution is filtered using Millivex 0.22 μM filters (PVDF membrane) and the final concentration is measured by the NanoDrop spectrometer. This stock solution is used to formulate to the final conditions stated above using 3× m-cresol, 10× NaCl, and 100× Tween-20 stock solutions. A 10 mg/mL PBS solution is also prepared by dissolving directly at 5 mg/mL and concentrating using Amicon-ultra 3 kDa MWCO devices.
Each solution is placed in a refrigerator at 4° C. for 1 week, with analysis by RP-HPLC to assess concentration and HPLC-SEC to assess HMW species formation. Analyses completed at T-0 week and T-1 week.
The solubility of Compounds 1-4 was measured essentially as described in this assay.

Human Gcg-R = target: T2, Human Gcg-R (Homo sapiens, UniProt P47871); test: Functional hGcg-R assay (cAMP HTRF, HEK-293 clonal cell line); assay type: cell-based
T2 construct: expressed in transfected cells; host or cells: HEK-293 clonal cell line over-expressing the receptor
Experimental: as §1, §2, §3

[7] = 15 nmol/kg sc every three days for 15 days
[8] = 30 nmol/kg sc every three days for 15 days

T1 sequence (P43220 24-463): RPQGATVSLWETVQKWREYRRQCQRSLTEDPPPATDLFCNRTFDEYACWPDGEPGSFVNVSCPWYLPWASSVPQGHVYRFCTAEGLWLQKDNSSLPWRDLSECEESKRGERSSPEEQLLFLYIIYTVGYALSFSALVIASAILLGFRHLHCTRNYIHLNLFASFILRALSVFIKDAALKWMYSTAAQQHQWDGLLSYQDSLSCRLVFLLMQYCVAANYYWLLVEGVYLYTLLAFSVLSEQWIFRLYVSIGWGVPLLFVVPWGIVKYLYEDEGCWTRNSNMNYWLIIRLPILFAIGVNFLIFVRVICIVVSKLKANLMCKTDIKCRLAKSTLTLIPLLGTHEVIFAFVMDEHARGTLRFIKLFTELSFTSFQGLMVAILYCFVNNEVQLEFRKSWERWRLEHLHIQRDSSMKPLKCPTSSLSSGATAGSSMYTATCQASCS
T2 sequence (P47871 26-477): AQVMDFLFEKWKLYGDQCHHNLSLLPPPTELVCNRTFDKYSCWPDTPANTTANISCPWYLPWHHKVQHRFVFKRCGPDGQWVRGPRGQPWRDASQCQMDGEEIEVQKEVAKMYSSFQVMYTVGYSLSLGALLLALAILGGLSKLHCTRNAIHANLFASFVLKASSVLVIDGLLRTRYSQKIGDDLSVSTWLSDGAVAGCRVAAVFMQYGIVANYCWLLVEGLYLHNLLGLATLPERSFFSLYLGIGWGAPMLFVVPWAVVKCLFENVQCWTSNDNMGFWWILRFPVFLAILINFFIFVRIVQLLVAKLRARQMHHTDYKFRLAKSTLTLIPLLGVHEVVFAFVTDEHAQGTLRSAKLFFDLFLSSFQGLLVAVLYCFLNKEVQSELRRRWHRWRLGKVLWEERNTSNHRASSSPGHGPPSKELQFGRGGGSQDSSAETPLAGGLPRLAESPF
Sequence of hGcg-R (P47871 26-477): as above

In the case of `CC(C)C[C@H](NC(=O)[C@H](CC(C)C)NC(=O)[C@H](Cc1c[nH]c2ccccc12)NC(=O)[C@H](CCC(=O)O)NC(=O)[C@@H](NC(=O)[C@H](Cc1ccccc1)NC(=O)[C@H](CCC(=O)O)NC(=O)[C@H](CCCCNC(=O)COCCOCCNC(=O)COCCOCCNC(=O)CC[C@H](NC(=O)CC[C@H](NC(=O)CCCCCCCCCCCCCCCCCCC(=O)O)C(=O)O)C(=O)O)NC(=O)[C@H](C)NC(=O)[C@H](CCCCN)NC(=O)[C@H](CCCCN)NC(=O)[C@H](CCC(=O)O)NC(=O)[C@H](CC(=O)O)NC(=O)[C@H](CC(C)C)NC(=O)[C@H](Cc1ccc(O)cc1)NC(=O)[C@H](CCCCN)NC(=O)[C@H](CO)NC(=O)[C@H](Cc1ccc(O)cc1)NC(=O)[C@H](CC(=O)O)NC(=O)[C@H](CO)NC(=O)[C@@H](NC(=O)[C@H](Cc1ccccc1)NC(=O)[C@@H](NC(=O)CNC(=O)[C@H](CCC(N)=O)NC(=O)C(C)(C)NC(=O)[C@@H](N)Cc1c[nH]cn1)[C@@H](C)O)[C@@H](C)O)C(C)C)C(=O)N[C@@H](CO)C(=O)NCC(=O)NCC(=O)N1CCC[C@H]1C(=O)N[C@@H](CO)C(=O)N[C@@H](CO)C(=O)NCC(N)=O` [Compound 4] (H-H[Aib]QGTFTSDYSKYLDEKKAK([AEEA-AEEA-γGlu-γGlu-C20 diacid])EFVEWLLSGGPSSG-NH2; N-terminus assumed), the “Body Fat (% change vs. vehicle from Day 1)” value (DIO mice (C57BL/6) [1]; [7]) is reported as −26* %, the “Body Weight (% change vs. vehicle from Day 1)” value (DIO mice (C57BL/6) [1]; [7]) is reported as −15* % and the “Body Fat (% change vs. vehicle from Day 1)” value (DIO mice (C57BL/6) [1]; [8]) is reported as −69* %. For the same compound, the “Body Weight (% change vs. vehicle from Day 1)” value (DIO mice (C57BL/6) [1]; [8]) was −39* %, the Ki (hGLP-1-R [2]) was 20.2 ± 8.2 nM and the “500 μL syringe Viscosity” value [3] was 1.05 cP or mPa-s. The Emax (hGLP-1-R [4]; HEK293) was 85.2 ± 6%, the EC50 (hGLP-1-R [4]; cAMP, 60 minute incubation, 0.25% FBS, 0.05% BSA, geometric mean, read-out: Human GLP-1-R EC50, nM ± SEM (n)) was 106 ± 18 nM and the Ki (hGcg-R) was 27.4 ± 3.3 nM. The “44 hours Glucose AUC (% of Vehicle)” value (DIO mice (C57BL/6) [5]; OGTT 44 hours post-injection, 25 nmol/kg sc) was 41* % of Vehicle, the “78 hours Glucose AUC (% of Vehicle)” value (DIO mice (C57BL/6) [5]; OGTT 78 hours post-injection, 25 nmol/kg sc) was 60* % of Vehicle and the “glucose excursions post an oral glucose challenge” value (DIO mice (C57BL/6) [5]; OGTTs at 44 and 78 hours post injection, 25 nmol/kg) was “lower glucose excursions post an oral glucose challenge at both time points”. For the same compound, the “Blood glucose (mg/dL) post-injection, Mean” value (shortened to “Blood glucose”) (DIO mice (C57BL/6) [5]; 2 hours post-injection) was 110.2 mg/dL, the “Blood glucose” value (DIO mice (C57BL/6) [5]; 8 hours post-injection) was 91.5 mg/dL and the “Blood glucose” value (DIO mice (C57BL/6) [5]; 24 hours post-injection) was 87.4 mg/dL. For the same compound, the “Blood glucose” value (DIO mice (C57BL/6) [5]; 48 hours post-injection) was 102.9 mg/dL, the “Blood glucose” value (DIO mice (C57BL/6) [5]; 72 hours post-injection) was 115.7 mg/dL and the “Blood glucose” value (DIO mice (C57BL/6) [5]; 96 hours post-injection) was 104.6 mg/dL. The solubility at 1 week ([6]; 10 mM Tris pH 8.0 + 3 mg/mL m-cresol + 0.02% Tween-20, Tris pH 8 + 3 mg/mL m-cresol + 0.02% Tween-20) was 10000 µg/mL, the solubility at 1 week ([6]; 10 mM Tris pH 8.0 + 3 mg/mL m-cresol + 150 mM NaCl, Tris pH 8 + 3 mg/mL m-cresol + 150 mm NaCl) was 10000 µg/mL and the solubility at 1 week ([6]; 10 mM Tris pH 8.0 + 3 mg/mL m-cresol, Tris pH 8 + 3 mg/mL m-cresol) was 10000 µg/mL. The “HMW species formation by SEC-HPLC” value ([6]; 1 week at 4° C.) was “No observed HMW species formation by SEC-HPLC;”, the solubility at 1 week ([6]; PBS pH 7.4, pH 7.4, read-out: solubility in PBS, pH 7.4) was 10000 µg/mL (≈ 2150 µM) and the “visible precipitation or phase separation” value ([6]; after 1 week storage at 4° C.) was “No visible precipitation or phase separation observed after 1 week”. It also gave an Emax (Human Gcg-R; HEK293) of 116 ± 4% and an EC50 (Human Gcg-R; cAMP, 60 minute incubation, 0.25% FBS, 0.05% BSA, geometric mean, read-out: Human Gcg-R EC50, nM ± SEM, (n)) of 68.8 ± 7.2 nM.
